This passage reports Ki results from BindingDB's records for doi:10.1021/jm950876u (Universit&#224, 1996).

For orientation: Ki means a dissociation constant, usually derived from enzyme kinetics or from competition with a known ligand. A lower Ki goes with tighter binding.

Where only a bound is given, the exact number is not on record here.

The target of the assay is Xanthine dehydrogenase/oxidase (Homo sapiens, UniProt P47989). Kind of assay: Inhibitory activity against Xanthine Oxidase.
Xanthine dehydrogenase/oxidase, sequence (P47989 whole entry): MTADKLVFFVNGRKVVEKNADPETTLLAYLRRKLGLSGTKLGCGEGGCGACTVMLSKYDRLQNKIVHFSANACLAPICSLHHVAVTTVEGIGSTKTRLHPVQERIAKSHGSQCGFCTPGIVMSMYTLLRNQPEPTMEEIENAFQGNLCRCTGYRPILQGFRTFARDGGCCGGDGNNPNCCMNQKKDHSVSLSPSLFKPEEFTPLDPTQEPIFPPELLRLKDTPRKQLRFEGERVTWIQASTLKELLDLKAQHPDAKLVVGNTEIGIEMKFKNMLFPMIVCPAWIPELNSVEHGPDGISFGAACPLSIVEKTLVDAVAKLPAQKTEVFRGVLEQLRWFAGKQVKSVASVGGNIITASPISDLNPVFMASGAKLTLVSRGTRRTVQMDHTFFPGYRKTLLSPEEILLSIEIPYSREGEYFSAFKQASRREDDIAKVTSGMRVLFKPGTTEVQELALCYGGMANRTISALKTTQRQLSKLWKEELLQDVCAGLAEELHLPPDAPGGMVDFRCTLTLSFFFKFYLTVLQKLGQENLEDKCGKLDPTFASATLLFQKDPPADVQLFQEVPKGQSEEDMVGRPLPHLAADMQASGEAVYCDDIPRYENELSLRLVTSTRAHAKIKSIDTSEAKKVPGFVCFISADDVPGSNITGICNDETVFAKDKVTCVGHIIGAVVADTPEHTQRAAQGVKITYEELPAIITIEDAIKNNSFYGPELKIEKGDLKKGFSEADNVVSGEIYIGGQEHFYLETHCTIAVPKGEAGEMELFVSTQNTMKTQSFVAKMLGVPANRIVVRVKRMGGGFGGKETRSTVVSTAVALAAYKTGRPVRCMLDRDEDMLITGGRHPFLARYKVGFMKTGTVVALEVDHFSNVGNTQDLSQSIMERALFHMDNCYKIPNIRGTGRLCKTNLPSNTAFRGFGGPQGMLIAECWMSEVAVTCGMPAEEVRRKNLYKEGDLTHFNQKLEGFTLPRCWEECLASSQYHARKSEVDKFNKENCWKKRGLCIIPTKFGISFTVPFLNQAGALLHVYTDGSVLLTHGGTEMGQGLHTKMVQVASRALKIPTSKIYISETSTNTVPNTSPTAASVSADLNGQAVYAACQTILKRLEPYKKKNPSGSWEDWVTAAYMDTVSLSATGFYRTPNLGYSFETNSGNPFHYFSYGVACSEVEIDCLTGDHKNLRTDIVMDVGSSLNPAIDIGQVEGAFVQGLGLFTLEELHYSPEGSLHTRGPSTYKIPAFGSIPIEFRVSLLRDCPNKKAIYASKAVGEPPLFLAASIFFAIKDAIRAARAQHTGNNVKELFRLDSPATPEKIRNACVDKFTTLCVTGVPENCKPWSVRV

Regarding `CC1CSc2nc3[nH]c(=O)[nH]c3c(=O)n2C1` (configuration not stated) [2-Hydroxy-7-methyl-7,8-dihydro-3H,6H-5-thia-1,3,4,8a-tetraaza-cyclopenta[b]naphthalen-9-one], the Ki is over 100 µM.
Compound `CC1CSc2nc3[nH]c(=S)[nH]c3c(=O)n2C1` (configuration not stated) [2-Mercapto-7-methyl-7,8-dihydro-3H,6H-5-thia-1,3,4,8a-tetraaza-cyclopenta[b]naphthalen-9-one] returned a Ki of over 100 µM.
